Laboratory results reported in patent US20250262308A1, “Compositions and Methods for Modulating Dopamine Receptor Activity” (The Regents of the University of California, priority 2022, published 2025).

How the values were obtained:
D2R = target: T1, D2R (Homo sapiens, UniProt P14416); assay: GIRK activation assay, whole-cell patch clamp, HEK293T co-transfected with M, D2R and GIRK1 (F137S); assay type: cell-based; details: for photo-agonism of D2R (GIRK inward current): P tethered to M, compared with saturating dopamine (1 μM)
T1 construct: expressed in transfected cells; host or cells: HEK293T
Protocol: D2R photo-activation was evaluated in a G protein-activated inwardly rectifying K^+ channel (GIRK) activation assay. The M anchoring protein was re-designed by substituting the SNAP-tag at its external N-terminal with a HALO-tag (FIG. 3A). HEK293T were co-transfected with M, D2R and the homotetramerizing mutant of GIRK1 (F137S), making it possible to detect D2R activation as Gi/o-dependent GIRK inward-current at high external K^+ and negative holding potential. Transfected cells were patch clamped in whole-cell configuration and alternately irradiated with 440 nm light or perfused with a saturating (1 μM) concentration of dopamine to elicit maximal D2R activation.
(A) Schematic representation of D2R activation by MP-D2ago in response to light. (B, C) Representative traces of MP-D2ago with one (1×; B) or two (2×; C) branch points. (D) Summary of the maximal photo-activation of D2R by MP-D2ago relative to a saturating concentration of DA (1 μM). […] Summary of the activation and deactivation kinetics (E) and light sensitivity (F) of D2R in response to 1× or 2×MP-D2ago.
To complement our cell-targeted D2R photo-agonist, a tethered photo-antagonist for D2R was designed. The same photoswitch architecture was employed; however, in this case, one of two substituted phenyl piperazines was used as a head group (FIG. 5A). Two variant phenyl piperazines, 2,3-dichloro- and 2-methoxy-phenylpiperazine, were chosen as the core scaffold. To each of these, we appended a 3-carbon (C3) linker followed by the same PEG- and HALO substrate employed in the synthesis of P-D2ago, thereby generating potential photo-antagonists. […] A 4-carbon linker at this position was tested.
FIG. 5A-5G: Evaluation of phenylpiperazine-based MPs of D2R in HEK293T cells. A) Chemical structures of P-D2 constructs used to label the M protein. B) Schematic representation MP-D2block,C3 and MP-D2pa,C3 activity under light irradiation. CD) Patch clamp electrophysiology traces of tethered partial agonists. E) Schematic representation of dopamine blocking by MP-D2block under light irradiation. F,G) Patch clamp electrophysiology traces of tethered D2 antagonist.

[1] = UV/Vis photophysical characterization of the photoswitch; assay type: physicochemical
Protocol: FIG. 2A-2E. Synthesis of P-D2ago and photophysical characterization. A) Chemical Synthesis of P-D2ago. B) UV Vis absorbance spectra of P-D2ago (20 μM in DMSO, 24° C.) in the dark and under 415 nm irradiation. C) Wavelength scan for P-D2ago (20 μM, DMSO, 24° C.). Each wavelength is applied for 2 minutes. […] E) Thermal relaxation of P-D2ago in DMSO after 1 minute irradiation with 415 nm at 37° C. F) Synthesis of branched, photoswitchable amino indenyl dimer P-D2ago-2X.
UV Vis data were analyzed and plotted using […] Prism. Irradiation was achieved from the top of the cuvette through a fiber-optic cable. […] Absorbance (reported as Abs, in arbitrary units) was measured at 420 nm over time. Thermal Relaxation was measured after 1 min irradiation with 415 nm at 10 or 20 μM, and subsequently absorption increase was detected at 420 nm. The relaxation half-live of the cis-isomer was determined by curve fitting, using exponential one-phase decay in […] Prism. Photostationary states were determined by pre-irradiation of samples (20 uM, DMSO) for 10 min at the respective wavelengths. Samples for LCMS separation were prepared under red-light conditions in amber vials and immediately subjected to LCMS.
FIG. 8A-8E: Photophysical Characterization of P-D1block(24) A) UV Vis absorption spectra of dark-adapted (100% trans) P-D1block(24) in DMSO (20 μM), and after preirradiation with 370/460 nm for 10 min. […] C) Photostationary state (PSS) of P-D1block(24) in DMSO (20 μM, 24° C.), after preirradiation with 360/420 nm for 10 min. Detection of PSS was achieved by LCMS by separation of isomers and integration of Abs at the isosbestic point of cis- and trans-isomers at the respective elution solvent mixtures. D, E) Thermal relaxation of P-D1block(24) in 10% DMSO in PBS and 100% DMSO at 37° C., detection of Abs at 340 nm after pre-irradiation of the samples for 10 min at 360 nm.

T1 sequence (P14416 whole entry): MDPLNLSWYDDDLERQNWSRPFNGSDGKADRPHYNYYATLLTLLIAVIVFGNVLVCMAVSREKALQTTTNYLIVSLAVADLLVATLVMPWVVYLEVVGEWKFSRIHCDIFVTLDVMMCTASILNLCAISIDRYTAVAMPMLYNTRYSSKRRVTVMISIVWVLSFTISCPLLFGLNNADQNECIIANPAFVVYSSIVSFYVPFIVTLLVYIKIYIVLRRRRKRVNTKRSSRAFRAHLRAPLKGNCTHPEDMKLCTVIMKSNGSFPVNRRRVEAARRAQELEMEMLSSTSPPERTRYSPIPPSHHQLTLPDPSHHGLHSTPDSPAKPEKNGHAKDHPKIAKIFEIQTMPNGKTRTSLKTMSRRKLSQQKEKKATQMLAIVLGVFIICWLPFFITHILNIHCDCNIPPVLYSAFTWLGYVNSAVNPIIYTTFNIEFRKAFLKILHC

Row | Structure (SMILES) | photo-agonism of D2R (GIRK inward current) (D2R; 440 nm light) | photo-antagonism of D2R activation by dopamine (D2R; tethered to M, 440 nm light, 1 uM dopamine) | sensitivity to light, greater than P-D2ago (D2R; tethered to M) | activation kinetics, faster than P-D2ago (D2R; tethered to M, 440 nm light) | reversible switching ([1]; 20 μM in DMSO, alternating irradiation) | thermal back-relaxation in aqueous environment ([1]; 10% DMSO in PBS) | absorption maximum ([1]; UV/Vis, 20 μM in DMSO, 24° C.) | wavelength of maximal switching into the cis-form (maximum PSS) ([1]; wavelength scan, 20 μM, DMSO, 24° C.)
1 | COc1ccccc1N1CCNCC1 [2-methoxy-phenylpiperazine] | very weak partial agonism | very weak antagonism | – | – | – | – | – | –
2 | CCCN(CCCCNc1ccc(/N=N/c2ccc(NC(=O)CCOCCOCCOCCOCCOCCOCCOCCOCCOCCOCCOCCOCCOCCOCCOCCOCCOCCOCCOCCOCCOCCOCCOCCOCCNC(=O)CCC(NC(=O)CCC(=O)NCCOCCOCCCCCCCl)C(=O)NCCOCCOCCOCCOCCOCCOCCOCCOCCOCCOCCOCCOCCOCCOCCOCCOCCOCCOCCOCCOCCOCCOCCOCCOCCC(=O)Nc3ccc(/N=N/c4ccc(NCCCCN(CCC)C5Cc6ccccc6C5)cc4)cc3)cc2)cc1)C1Cc2ccccc2C1 (stereo not shown) [2X-P-D2ago] | same maximal activation | – | ~5 fold | ~2 fold | – | – | – | –
3 | CCCN(CCCCNc1ccc(/N=N/c2ccc(NC(=O)CCOCCOCCOCCOCCOCCOCCOCCOCCOCCOCCOCCOCCOCCOCCOCCOCCOCCOCCOCCOCCOCCOCCOCCOCCNC(=O)CCC(=O)NCCOCCOCCCCCCCl)cc2)cc1)C1Cc2ccccc2C1 [P-D2ago] | full photo-agonism | – | – | – | without fatigue | exceeds the detection limit | 424 nm | 440 nm
